Assay results published in article PMC12888920, “MMP-9 regulates disulphide isomerase activity of TGM2 to enhance fusion glycoprotein-mediated syncytium formation of respiratory syncytial virus” (Protein & Cell, 2025).

How the values were obtained:
[1] = test system: RSV A2; assay: High-throughput antiviral screening of protease inhibitor library against RSV A2 in HEp-2 cells; assay type: cell-based, Respiratory syncytial virus; conditions: RSV A2, MOI = 0.1, 1, 5, 10 µmol/L, 72 hpi
Text: Figure 1. Antiviral activity of metalloproteinase inhibitors against RSV in vitro. (A) Experimental workflow for RSV A2 infection and compound treatment. (B) High-throughput screening of TargetMol L1100 library (246 host protease inhibitors targeting 10 pathways: MMPs, caspases, proteasomes, apoptosis regulators, cysteine proteases, gamma-secretase, autophagy modulators, serine proteases, DPP-4, and beta-secretase) using concentration gradients (1, 5, 10 µmol/L). HEp-2 cells were pretreated with compounds for 1 hour prior to RSV A2 infection (MOI = 0.1). Plaque formation was quantified at 72 hours post-infection (hpi) and normalized to DMSO controls. […] (G) Target overlap analysis of four MMP-9-targeting inhibitors. (H) Viral titers in supernatants of HEp-2 cells transfected with MMP-specific siRNAs (24 h) followed by RSV A2 infection (MOI = 1, 72 h). mean ± SD, n = 3. The results are representatively shown with three random experiments. The error bars indicate the mean ± SD of three technical replicates (n = 3). Statistical significance was determined by one-way ANOVA with Dunnett’s post hoc test: *P < 0.05, ***P < 0.001; ns, not significant.
104 High-throughput antiviral screening
105 The L1100 protease inhibitor library (246 compounds; L1100, TargetMol) was
106 screened against RSV A2 in HEp -2 cells. Compounds (10 mM DMSO stocks) were
107 robotically dispensed 1 h pre -infection at final concentrations of 1, 5, 10 μM.
108 Infection rates (72 hpi) were normalized to PC786 (1 μM; positive control; HY -
109 111813, MCE) and 0.1% DMSO vehicle. Primary hits (>50% CPE reduction + not
110 overtly cytotoxic) underwent dose -response validation (0.00004 –10 μM) to generate
111 EC50 curves (GraphPad Prism 8.0) .
112 Evaluation of in vitro antiviral activity
113 Compound inhibitor treatments: HEp-2 cells (1.3×10⁴/well) or HBEC (1.8×10⁴/well)
114 were pretreated with test compounds for 1 h before RSV A2/B18537 infection
115 (MOI=0.1 or 0.3). Viral inhibition was quantified at 72 hpi via FFA. Fixed cells (4%
116 PFA) were permeabilized (0.3% Triton X-100), stained with anti-RSV-FITC
118 Fluorescent foci were normalized to nuclear counts (ImageJ software) for EC 50
119 determination via four-parameter logistic regression (GraphPad Prism 8.0). Data
120 represent triplicate experiments. […]

[2] = test system: RSV A2; assay: BALB/c mouse model of RSV A2 infection, oral treatment; assay type: in vivo, BALB/c mice; conditions: 4 dpi, 3 × 10^6 PFU RSV A2
Experimental: To evaluate the antiviral efficacy of metalloproteinase inhibitors, we employed a BALB/c mouse model intranasally challenged with 3 × 10^6 PFU RSV A2. Mice received twice-daily oral administration of JNJ0966 (selective targeting of MMP-9 ([Scannevin et al., 2017]), 20 or 60 mg/kg [mpk]) or doxycycline hyclate (a broad-spectrum MMP inhibitor ([Patnaik et al., 2021]; [Samtani et al., 2009]), 60 or 180 mpk), beginning 2 hpi (Fig. 9A). By 4 dpi, JNJ0966 (60 mpk) and doxycycline hyclate (180 mpk) reduced lung viral titers by 2.6-fold and 2.0-fold, respectively, compared to vehicle-treated controls (Fig. 9B).
Figure 9. Therapeutic efficacy of MMP-9 inhibitors against RSV in mice. (A) Therapeutic regimen. […] Lung viral titers quantified by FFA at 4 dpi. mean ± SD, n = 5/group. […] Statistical significance was determined by one-way ANOVA with Dunnett’s post hoc test (B, D): **P < 0.01, ***P < 0.001. […]
314 50 μL of stop solution, absorbance at 540 nm was subtracted from the reading at
315 450 nm by PerkinElmer Ensight reader, and analyte concentrations were calculated […]
329 using a tissue grinder. Viral titers were quantified via FFA using 100 μL of […]
332 Two blinded pathologists independently scored histopathological changes on a 0 -4 […]
336 Body weights were monitored daily. […]
337 transcriptomic analyses. Viral loads were determined as focus -forming units per gram […]

Compound	inhibition of RSV infection in HEp-2 cells [1]	reduction of lung viral titers compared to vehicle-treated controls ([2]; 60 mpk oral twice daily) [fold]	reduction of lung viral titers compared to vehicle-treated controls ([2]; 180 mpk oral twice daily) [fold]
COc1ccccc1Nc1nc(-c2sc(NC(C)=O)nc2C)cs1 [JNJ0966]	significant dose-dependent inhibition	2.6	
Doxycycline hyclate	significant dose-dependent inhibition		2.0
